Measured values from patent US20100204203A1, “Chemical Compounds 637: Pyridopyrimidinediones as PDE4 Inhibitors” (priority 2007, published 2010).

Molecular target: recombinant Human Phosphodiesterase B2 (PDE4B2) (Homo sapiens, UniProt Q07343)
Test: Human Phosphodiesterase B2 Radiometric Assay (yttrium silicate SPA beads, [3H]cyclic AMP)
Format: biochemical
Conditions: recombinant human PDE4B2, radiometric SPA assay, 8 nM [3H]cyclic AMP; read-out: PDE4B2 pIC50 (converted)
In short: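 Compounds were preincubated 30 min at 30 °C with 0.1 mg/mL PDE4B2 in 50 mM HEPES pH 7.5, 8.3 mM MgCl2, 1.7 mM EGTA, 0.01% Brij 35. Then 8 nM [3H]cAMP was added for 20 min, stopped with yttrium silicate SPA beads plus 18 mM ZnSO4 capturing product 5′AMP; pIC50 by curve fitting.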

recombinant Human Phosphodiesterase B2 (PDE4B2), sequence (Q07343 1-564 isoform Q07343-2): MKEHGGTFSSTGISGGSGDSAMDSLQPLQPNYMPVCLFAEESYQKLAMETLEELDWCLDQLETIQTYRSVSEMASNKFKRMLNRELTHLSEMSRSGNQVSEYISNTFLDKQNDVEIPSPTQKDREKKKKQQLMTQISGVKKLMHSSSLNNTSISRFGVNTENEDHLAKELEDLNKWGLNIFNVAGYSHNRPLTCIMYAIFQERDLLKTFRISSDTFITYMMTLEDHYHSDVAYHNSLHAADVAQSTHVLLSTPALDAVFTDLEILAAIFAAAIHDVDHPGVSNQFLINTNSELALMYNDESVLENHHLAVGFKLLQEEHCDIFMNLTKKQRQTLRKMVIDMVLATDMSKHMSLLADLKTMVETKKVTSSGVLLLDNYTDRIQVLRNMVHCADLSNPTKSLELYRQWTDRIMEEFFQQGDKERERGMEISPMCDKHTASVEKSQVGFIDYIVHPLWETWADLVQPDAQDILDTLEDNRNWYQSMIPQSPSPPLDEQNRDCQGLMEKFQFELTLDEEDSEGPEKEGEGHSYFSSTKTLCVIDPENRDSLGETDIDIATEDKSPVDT

Row | IC50 | SMILES
1 | 0.01 nM | O=C(N[C@H]1CC[C@@H](n2c(=O)c3cc(F)cnc3n(-c3cccc(-c4ccc(CN5CCN(C6CCCC6)CC5)cc4)c3)c2=O)CC1)c1cn2c(n1)CCCC2 [Example 221, N-{cis-4-[1-{4′-[(4-cyclopentylpiperazin-1-yl)methyl]biphenyl-3-yl}-6-fluoro-2,4-dioxo-1,4-dihydropyrido[2,3-d]pyrimidin-3(2H)-yl]cyclohexyl}-5,6,7,8-tetrahydroimidazo[1,2-a]pyridine-2-carboxamide]
2 | 0.316 nM | CN(CC(=O)N(C)C)Cc1cc(O)ccc1-c1cccc(-n2c(=O)n([C@H]3CC[C@@H](NCc4cn5cc(F)ccc5n4)CC3)c(=O)c3cc(F)cnc32)c1 [Example 378, N~2~-({3′-[6-fluoro-3-(cis-4-{[(6-fluoroimidazo[1,2-a]pyridin-2-yl)methyl]amino}cyclohexyl)-2,4-dioxo-3,4-dihydropyrido[2,3-d]pyrimidin-1(2H)-yl]-4-hydroxybiphenyl-2-yl}methyl)-N,N,N~2~-trimethylglycinamide]
3 | 0.0631 nM | O=C1CN(Cc2cc(O)ccc2-c2cccc(-n3c(=O)n([C@H]4CC[C@@H](NCc5cn6cc(F)ccc6n5)CC4)c(=O)c4cc(F)cnc43)c2)CCN1 [Example 377, 6-fluoro-3-(cis-4-{[(6-fluoroimidazo[1,2-a]pyridin-2-yl)methyl]amino}cyclohexyl)-1-{4′-hydroxy-2′-[(3-oxopiperazin-1-yl)methyl]biphenyl-3-yl}pyrido[2,3-d]pyrimidine-2,4(1H,3H)-dione]
4 | 0.0316 nM | Cc1cc(-c2ccc(CN3CCNCC3)cc2)cc(-n2c(=O)n([C@H]3CC[C@@H](NC(=O)c4cn5cc(F)ccc5n4)CC3)c(=O)c3cc(F)cnc32)c1 [Example 230, 6-Fluoro-N-{cis-4-[6-fluoro-1-[5-methyl-4′-(piperazin-1-ylmethyl)biphenyl-3-yl]-2,4-dioxo-1,4-dihydropyrido[2,3-d]pyrimidin-3 (2H)-yl]cyclohexyl}imidazo[1,2-a]pyridine-2-carboxamide]
5 | 0.398 nM | O=C(N[C@H]1CC[C@@H](n2c(=O)c3cc(F)cnc3n(-c3cccc(-c4ccccc4CN4CCOCC4)c3)c2=O)CC1)C1(O)CC1 [Example 48, N-{cis-4-[6-fluoro-1-[2′-(morpholin-4-ylmethyl)biphenyl-3-yl]-2,4-dioxo-1,4-dihydropyrido[2,3-d]pyrimidin-3(2H)-yl]cyclohexyl}-1-hydroxycyclopropanecarboxamide]
6 | 0.02 nM | CN(C)C1(C(=O)N[C@H]2CC[C@@H](n3c(=O)c4cc(F)cnc4n(-c4cccc(-c5ccc(CN6CCN(C7CCCC7)CC6)cc5)c4)c3=O)CC2)CC1 [Example 210, N-{cis-4-[1-{4′-[(4-cyclopentylpiperazin-1-yl)methyl]biphenyl-3-yl}-6-fluoro-2,4-dioxo-1,4-dihydropyrido[2,3-d]pyrimidin-3(2H)-yl]cyclohexyl}-1-(dimethylamino)cyclopropane-carboxamide]
7 | 0.0251 nM | CC(C)(C)OC(=O)N1CCN(CC(=O)N[C@H]2CC[C@@H](n3c(=O)c4cc(F)cnc4n(-c4cccc(-c5ccccc5)c4)c3=O)CC2)CC1 [Example 105, tert-butyl 4-(2-{[cis-4-(1-biphenyl-3-yl-6-fluoro-2,4-dioxo-1,4-dihydropyrido[2,3-d]pyrimidin-3(2H)-yl)cyclohexyl]amino}-2-oxoethyl)piperazine-1-carboxylate]
8 | 0.126 nM | O=c1c2cc(F)cnc2n(-c2cccc(-c3cccc(O)c3CN3CCOCC3)c2)c(=O)n1[C@H]1CC[C@@H](NCc2cn3cc(F)ccc3n2)CC1 [Example 346, 6-Fluoro-3-(cis-4-{[(6-fluoroimidazo[1,2-a]pyridin-2-yl)methyl]amino}cyclohexyl)-1-[3′-hydroxy-2′-(morpholin-4-ylmethyl)biphenyl-3-yl]pyrido[2,3-d]pyrimidine-2,4(1H,3H)-dione]
9 | 0.398 nM | CC(C)[C@H](N)C(=O)N[C@H]1CC[C@@H](n2c(=O)c3cc(F)cnc3n(-c3cccc(-c4ccc(CN5CCCN(C)CC5)cc4)c3)c2=O)CC1 [Example 314, N-{cis-4-[6-fluoro-1-{4′-[(4-methyl-1,4-diazepan-1-yl)methyl]biphenyl-3-yl}-2,4-dioxo-1,4-dihydropyrido[2,3-d]pyrimidin-3(2H)-yl]cyclohexyl}-L-valinamide]
10 | 0.0316 nM | CC(C)NCCOc1ccc(-c2cccc(-n3c(=O)n([C@H]4CC[C@@H](NC(=O)c5cn6cc(F)ccc6n5)CC4)c(=O)c4cc(F)cnc43)c2)cc1 [Example 342]
11 | 0.0398 nM | Cc1cc(O)ccc1-c1cccc(-n2c(=O)n([C@H]3CC[C@@H](NC(=O)c4cn5cc(F)ccc5n4)CC3)c(=O)c3cc(F)cnc32)c1 [Example 23, 6-fluoro-N-{cis-4-[6-fluoro-1-(4′-hydroxy-2′-methylbiphenyl-3-yl)-2,4-dioxo-1,4-dihydropyrido[2,3-d]pyrimidin-3(2H)-yl]cyclohexyl}imidazo[1,2-a]pyridine-2-carboxamide.]
12 | 0.398 nM | O=c1c2cc(F)cnc2n(-c2cccc(-c3ccc(O)cc3CN3CCOCC3)c2)c(=O)n1[C@H]1CC[C@@H](NCc2cn3c(n2)CCCC3)CC1 [Example 252, 6-Fluoro-1-[4′-hydroxy-2′-(morpholin-4-ylmethyl)biphenyl-3-yl]-3-{cis-4-[(5,6,7,8-tetrahydroimidazo[1,2-a]pyridin-2-ylmethyl)amino]cyclohexyl}pyrido[2,3-d]pyrimidine-2,4(1H,3H)-dione]
13 | 0.501 nM | CC(=O)n1cc(CN(Cc2cn(C(C)=O)c3ccccc23)[C@H]2CC[C@@H](n3c(=O)c4cc(F)cnc4n(-c4cccc(-c5ccc(CN6CCN(C(C)C)CC6)cc5)c4)c3=O)CC2)c2ccccc21 [Example 341, 3-(cis-4-{bis[(1-acetyl-1H-indol-3-yl)methyl]amino}cyclohexyl)-6-fluoro-1-{4′-[(4-isopropylpiperazin-1-yl)methyl]biphenyl-3-yl}pyrido[2,3-d]pyrimidine-2,4(1H,3H)-dione]
14 | 0.316 nM | O=c1c2cc(F)cnc2n(-c2cccc(-c3ccc(CN4CCNCC4)cc3)c2)c(=O)n1[C@H]1CC[C@@H](NCc2cn3cc(F)ccc3n2)CC1 [Example 75, 6-fluoro-3-(cis-4-{[(6-fluoroimidazo[1,2-a]pyridin-2-yl)methyl]amino}cyclohexyl)-1-[4′-(piperazin-1-ylmethyl)biphenyl-3-yl]pyrido[2,3-d]pyrimidine-2,4(1H,3H)-dione]
15 | 0.126 nM | Cc1cc(C(=O)N[C@H]2CC[C@@H](n3c(=O)c4cc(F)cnc4n(-c4cccc(-c5ccc(CN(C)C(C)(C)C)cc5)c4)c3=O)CC2)nn1C [Example 131, N-{cis-4-[1-(4′-{[tert-butyl(methyl)amino]methyl}biphenyl-3-yl)-6-fluoro-2,4-dioxo-1,4-dihydropyrido[2,3-d]pyrimidin-3(2H)-yl]cyclohexyl}-1,5-dimethyl-1H-pyrazole-3-carboxamide]
16 | 1 nM | O=c1c2cc(F)cnc2n(-c2cccc(-c3ccc(O)cc3CN3CCOCC3)c2)c(=O)n1[C@H]1CC[C@@H](NCc2ccc(Cl)cc2)CC1 [Example 281, 3-{cis-4-{(4-chlorobenzyl)amino]cyclohexyl}-6-fluoro-1-[4′-hydroxy-2′-(morpholin-4-ylmethyl)biphenyl-3-yl]pyrido[2,3-d]pyrimidine-2,4(1H,3H)-dione]
